# Data taken from patent US20150051212A1, “Compositions And Methods For Inhibiting Drusen” (Regenerative Research Foundation, priority 2012, published 2015).
# Experiments:
# [1] = O'Hare et al. 2005 Cancer Cell; cited from earlier work
# RPESC-derived RPE cells [2] = test: Restored resistance: transepithelial resistance of RPESC-derived RPE after oxidative stress; format: cell-based, human; details: oxidative stress by TBHP; FIG. 3
# Description: The ability of a test substance to restore transepithelial resistance may also be determined in the RPE cell-based assay. RPE cells are a tight junctioned epithelia and compromised epithelial integrity is a hallmark of RPE-associated diseases, such as, e.g., dry AMD.
# Restored resistance. Healthy RPE form tight functioned epithelia layers with high electrical resistance. Compromising the integrity of these layers decreases the resistance and is indicative of a diseased state, such as dry or other forms of AMD.
# Preferably, each well of primary human RPE cells has a resistance greater than 200 Ω·cm^2 before beginning the experiment. Resistance of RPE treated with a test compound is measured again, after oxidative stress, and compared to the resistance in untreated RPE subjected to the same oxidative stress procedure.
# [3] = tested on: drusen-associated protein transcripts; test: Reduced drusen expression: qPCR of drusen-associated protein transcripts in stressed RPE; format: cell-based, human; details: FIG. 4
# Experimental: RNA is isolated from the RPE cells at the end of the 24 hour rest period, according to the protocol in the Qiagen RNeasy Micro/Mini Kits. Once isolated, the RNA is converted into cDNA using a high-capacity RNA to cDNA conversion kit (Applied Biosystems). The resulting cDNA is then used in a qPCR assay, to quantitate expression of various drusen-associated genes, including genes encoding: αA-crystallin, αB-crystallin, βB1-crystallin, βB2-crystallin, βs-crystallin, αA4-crystallin, APP, APOE, APOJ, BACE-1, PS1, VEGF, VEGF R1, VEGF R2, PEDF, CC9, serum amyloid P, TIMP3, vitronectin, and H2AE. The expression level of one or more housekeeping genes, such as ribosomal S18 and GAPDH, is also quantitated. Forward and reverse PCR primers having the nucleotide sequences shown in Table 2, below, may be used with a SYBR green reporter from Applied Biosystems.
# RPESC-derived RPE cells [4] = test: Restored viability: LDH cytotoxicity assay in stressed RPESC-derived RPE
compound,measurement,setting,value
Cc1cn(-c2cc(NC(=O)c3ccc(C)c(Nc4nccc(-c5cccnc5)n4)c3)cc(C(F)(F)F)c2)cn1 [AMN107],potency relative to imatinib mesylate,[1],20 fold
"Cc1ccc(NC(=O)c2ccc(CN3CCN(C)CC3)cc2)cc1Nc1nccc(-c2cccnc2)n1 [Gleevec, 4-[(4-methylpiperazin-1-yl)methyl]-N-(4-methyl-3-{[4-(pyridin-3-yl)pyrimidin-2-yl]amino}phenyl)benzamide]",effect on decrease in transepithelial resistance after oxidative stress,RPESC-derived RPE cells [2],attenuate the decrease in transepithelial resistance
same,effect on TBHP-induced up-regulation of drusen-associated protein transcripts,[3],attenuates TBHP-induced up-regulation of drusen-associated protein transcripts
same,cells viability restored compared to untreated controls,RPESC-derived RPE cells [4]; 1 µM,100%
same,cell death in treated cells,"RPESC-derived RPE cells [4]; 1 μM, 100% cell death in untreated controls",0%
COc1cc(Nc2c(C#N)cnc3cc(OCCCN4CCN(C)CC4)c(OC)cc23)c(Cl)cc1Cl [Bosutinib],effect on TBHP-induced up-regulation of drusen-associated protein transcripts,[3],attenuates TBHP-induced up-regulation of drusen-associated protein transcripts
Ponatinib,reduction in cell death compared to the cell lysis control,RPESC-derived RPE cells [4]; 500 nM,about 80%
same,effect on cytotoxicity,"RPESC-derived RPE cells [4]; 1 μM, FIG. 2",no effect on cytotoxicity
